{"source": "patent US20140088144A1", "about": "“INHIBITING MICROBIAL INFECTIONS” (THE UNIVERSITY OF KANSAS, priority 2012, published 2014)", "key": {"CRP": {"biological_target": "T1, CRP (Escherichia coli, UniProt P0ACJ8)", "T1 construct": "made in house; host or cells: E. coli", "T1 sequence (P0ACJ8 2-210)": "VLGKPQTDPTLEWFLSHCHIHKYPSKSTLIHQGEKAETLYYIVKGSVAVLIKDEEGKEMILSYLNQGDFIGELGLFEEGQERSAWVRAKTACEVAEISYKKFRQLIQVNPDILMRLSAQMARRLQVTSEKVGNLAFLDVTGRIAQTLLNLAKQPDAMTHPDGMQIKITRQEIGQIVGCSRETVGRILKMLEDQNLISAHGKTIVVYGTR", "experiment": "EMSA in vitro DNA binding by CRP", "type": "biochemical, E. coli", "conditions": "1.3 mM compound", "from_the_text": "All proteins for this study were expressed in E. coli. Untagged CRP was purified by Ni^2+-affinity chromatography as described. Lad protein was purified by ammonium sulfate precipitation and phosphocellulose column chromatography as described. RhaS-GB1^201b and GB1^b-RhaR were purified by Ni^2+-affinity chromatography. Briefly, plasmids derived from pET21 and expressing RhaS-GB1^201b and GB1^b-RhaR were transformed into competent cells of strains Acella™ (MoBiTec, Gottingen, Germany) or ArcticExpress(DE3) (Agilent Technologies, Santa Clara Calif.), respectively. The cells were grown in 1 liter TY plus ampicillin and rhamnose. Gentamycin was also added for GB1^b-RhaR. The cells were grown to OD600 of 0.5, transferred to a 15° C. shaker, 0.1 mM IPTG was added, and then incubated overnight. Cells were harvested by centrifugation and then resuspended in 30 mL of cold binding buffer (20 mM Tris, 500 mM NaCl, 5 mM imidazole, pH 7.9) plus L-rhamnose. […]\nIRD700- and DY682-labeled oligos were from Eurofins MWG Operon. […] EMSA gels were imaged using an Odyssey infrared imager (LI-COR, Lincoln, Nebr.), and quantified using the Odyssey software, version 3.0.30. […] Inhibition values were calculated and graphs were drawn as for in vivo dose-response experiments."}, "ipaB": {"tested_on": "ipaB", "experiment": "Shigella gene expression qRT-PCR, ipaB", "type": "cell-based, S. flexneri", "conditions": "for Average ΔΔCt / Ct / RQ (2^−ΔΔCt) / ΔΔCt^1 (normalized to gapA) / ΔΔCt^2 (normalized to rrsA): ipaB, example data", "description": "Real-time quantitative reverse transcription PCR (qRT-PCR) was performed to test the effects of SE-1 on the expression of the VirF regulated genes virB, icsA, icsB and ipaB. The gapA and rrsA transcripts were used as internal controls. These are constitutively expressed Shigella genes commonly used to normalize mRNA levels. S. flexneri strain SME4331, which carries a null mutation in ipgD (ipgD), was grown at 30° C. overnight in TSB with ampicillin, diluted into the same medium to an OD600 of ˜0.1, and 1 ml aliquots further grown at 30° C. (DMSO only) or at 37° C. (SE-1 at 20 or 40 μM, or DMSO only, all 0.3% DMSO). Cells were grown to an OD600 of 1.0 (˜2.5 h) and RNA was isolated using an RNeasy MiniElute Cleanup Kit (Qiagen, Germantown, Md.), with DNA contamination eliminated using a Turbo DNase Kit (Ambion, Austin, Tex.). Complementary DNA (cDNA) was synthesized by random priming using a cDNA Reverse Transcription Kit (Applied Biosystems, Foster City, Calif.). Primers were tested for PCR specificity using genomic DNA template to ensure a single amplicon of the expected size for each primer pair, and validated using 5-fold dilutions of cDNA (2000 to 0.0256 ng) to ensure a linear plot of cycle threshold (Ct) versus cDNA concentration. Validated primer sets were used to test mRNA profiles in reactions that contained 10 ng of cDNA, 10 μl of SYBR green master mix (Applied Biosystems), specific primers (0.5 μM each) and water to a final volume of 20 μl, using a Step One Plus Real-Time PCR System (Applied Biosystems). The data was analyzed using the 2^−ΔΔCt method, and also by Applied Biosystems real-time analysis software. […] In brief, ΔΔCt values [ΔΔCt=(Ct,Target−Ct,Internal Control)SE-1−(Ct,Target−Ct,Internal Control)no SE-1] were separately obtained for each sample relative to two internal controls, gapA and rrsA. The ΔΔCt values relative to the two internal controls for each sample were averaged and then used to calculate the relative expression levels (2^−ΔΔCt). As a control, we also normalized each internal control to the other internal control. Control reactions used templates generated without reverse transcriptase to ensure low genomic DNA contamination. To ensure that products were not likely to be due to primer dimer artifacts, additional control samples were performed in which reaction mixtures contained primers alone (no template)."}}, "data": [{"smiles": "CCCCN1C=C(c2ccc3ccccc3n2)C(C[N+](=O)[O-])c2ccccc21", "note": "(stereo not drawn) [Compound 1, 1-butyl-4-(nitromethyl)-3-quinolin-2-yl-4H-quinoline]", "values": [{"measurement": "CRP DNA binding retained", "setting": "CRP", "value": "approximately 94%"}, {"measurement": "reduction of ipaB expression", "setting": "ipaB; 40 μM inhibitor, P<0.05", "value": "up to 4 fold"}, {"measurement": "Average ΔΔCt", "setting": "ipaB; SE-1 20 μM", "value": 1.11}, {"measurement": "Ct", "setting": "ipaB; SE-1 20 μM", "value": 25.57}, {"measurement": "RQ (2^−ΔΔCt)", "setting": "ipaB; SE-1 20 μM", "value": 0.46}, {"measurement": "ΔΔCt^1 (normalized to gapA)", "setting": "ipaB; SE-1 20 μM", "value": 0.62}, {"measurement": "ΔΔCt^2 (normalized to rrsA)", "setting": "ipaB; SE-1 20 μM", "value": 1.61}, {"measurement": "Average ΔΔCt", "setting": "ipaB; SE-1 40 μM", "value": 2.20}, {"measurement": "Ct", "setting": "ipaB; SE-1 40 μM", "value": 26.23}, {"measurement": "RQ (2^−ΔΔCt)", "setting": "ipaB; SE-1 40 μM", "value": 0.22}, {"measurement": "ΔΔCt^1 (normalized to gapA)", "setting": "ipaB; SE-1 40 μM", "value": 1.85}, {"measurement": "ΔΔCt^2 (normalized to rrsA)", "setting": "ipaB; SE-1 40 μM", "value": 2.54}]}]}
